The target of assay [1] is T1, WEE1 (Homo sapiens, UniProt P30291+Q96SW2).
T1 construct: C-terminal ePL-tagged (DiscoverX, Fremont, CA) full-length WEE1 expression construct; expressed in transfected cells; host or cells: LentiX-HEK293T (Invitrogen), lentiviral transduction; co-expressing GSPT1-GN (G576N, lacking the first 158 amino acids)
The assay can be described thus: WEE1-ePL degradation assay (LentiX-WEE1-ePL-GSPT1-ND cells, InCELL Hunter luminescence, 4 h). The note with it: 293T-LentiX WEE1-ePL cells; for DC50: read-out: 293T-LentiX WEE1-ePL Degradation 4 hr (EC50). It counts as cell-based. The method, boiled down: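 Luminescent readout (InCELL Hunter, 30 min RT) of WEE1-ePL levels in transduced HEK293T cells after 4 h compound exposure at 37 °C. Dosing: 10 points, 3-fold steps, top 1 uM or 10 uM. EC50 from four-parameter logistic fit; Ymax set by DMSO.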

Assay [2] has as its system MKN45 cells. The assay can be described thus: MKN45 cell proliferation assay (Cell-Titer-Glo, 120 h). It counts as cell-based. Conditions: for EC50: Homo sapiens, MKN-45, 120 h, Cell-Titer-Glo, read-out: MKN45 Cell Prolif. 120 hr (EC50); for MKN45 Cell Prolif. 120 hr (Ymin-Obs): minimal percent of DMSO control observed in the concentrations tested. The procedure, abridged:
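Cells seeded at 400/well onto pre-printed 10-point half-log dilutions (top 1 or 10 uM, 0.1% DMSO final), in triplicate, and grown 120 h at 37 C. Viability by Cell-Titer-Glo luminescence, blank-subtracted and normalised to DMSO; EC50 from four-parameter logistic fit, with observed minimal % of control recorded as Ymin-obs.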

The mark [3] stands for this setting: lower limit of the fit (0 = luciferase inhibitor, Ymax = DMSO control).
Setting [4] is: lower limit of the fit (Ymin=0 luciferase inhibitor, Ymax DMSO control).

Like-named read-outs stand apart in the source and are kept apart here.

By EC50 is commonly meant the concentration at which the effect is half-maximal. As for `O=C1CCC(N2Cc3cc(O[C@H]4CCN(Cc5ccnc6c5CCCO6)C4)ccc3C2=O)C(=O)N1` (stereo partly drawn) [3-(1-oxo-5-{[(3S)-1-({2H,3H,4H-pyrano[2,3-b]pyridin-5-yl}methyl)pyrrolidin-3-yl]oxy}-2,3-dihydro-1H-isoindol-2-yl)piperidine-2,6-dione], the “293T-LentiX WEE1-ePL Degradation 4 hr (Ymin)” value in assay [1] (setting [3]) was 44. The DC50 in assay [1] stood at 38.9 nM. The EC50 in assay [2] (growth inhibition) was 489 nM. In addition, the “MKN45 Cell Prolif. 120 hr (Ymin-Obs)” value in assay [2] is 27.04.

Take `O=C1CCC(N2Cc3cc(O[C@H]4CCN(Cc5ccnc6c5CCOC6)C4)ccc3C2=O)C(=O)N1` (stereo partly drawn) [3-(1-oxo-5-{[(3S)-1-({5H,6H,8H-pyrano[3,4-b]pyridin-4-yl}methyl)pyrrolidin-3-yl]oxy}-2,3-dihydro-1H-isoindol-2-yl)piperidine-2,6-dione]: the “293T-LentiX WEE1-ePL Degradation 4 hr (Ymin)” value in assay [1] (setting [3]) was found to be 51. The DC50 in assay [1] turned out to be 62.7 nM. In addition, the EC50 in assay [2] (growth inhibition) came out at 1280 nM. In assay [2], the “MKN45 Cell Prolif. 120 hr (Ymin-Obs)” value worked out at 56.39.

As for `CO[C@H]1CC[C@@H](Oc2ccc3cc(CN4CC[C@H](Oc5ccc6c(c5)CN(C5CCC(=O)NC5=O)C6=O)C4)ccc3n2)CC1` (stereo partly drawn) [3-(1-oxo-5-{[(3S)-1-[(2-{[(1s,4s)-4-methoxycyclohexyl]oxy}quinolin-6-yl)methyl]pyrrolidin-3-yl]oxy}-2,3-dihydro-1H-isoindol-2-yl)piperidine-2,6-dione], the “293T-LentiX WEE1-ePL Degradation 4 hr (Ymin)” value in assay [1] (setting [3]) amounted to 31.33. Further, the DC50 in assay [1] amounted to 4.62 nM. In addition, the EC50 in assay [2] (growth inhibition) was found to be 5.35 nM. For the same molecule, in assay [2], the “MKN45 Cell Prolif. 120 hr (Ymin-Obs)” value was determined as 8.79.

Turning to `O=C1CCC(N2Cc3cc(O[C@H]4CCN(Cc5cnc6ccc(F)c(F)c6c5)C4)ccc3C2=O)C(=O)N1` (stereo partly drawn) [3-(5-{[(3S)-1-[(5,6-difluoroquinolin-3-yl)methyl]pyrrolidin-3-yl]oxy}-1-oxo-2,3-dihydro-1H-isoindol-2-yl)piperidine-2,6-dione], in assay [1] (setting [3]), the “293T-LentiX WEE1-ePL Degradation 4 hr (Ymin)” value is on record as 43.98. The DC50 in assay [1] is 13.3 nM. The EC50 in assay [2] (growth inhibition) came to 166 nM. Moreover, the “MKN45 Cell Prolif. 120 hr (Ymin-Obs)” value in assay [2] was 44.73.

On to `Cc1cc(F)c2cc(CN3CC[C@H](Oc4ccc5c(c4)CN(C4CCC(=O)NC4=O)C5=O)C3)ccc2n1` (stereo partly drawn) [3-(5-{[(3S)-1-[(4-fluoro-2-methylquinolin-6-yl)methyl]pyrrolidin-3-yl]oxy}-1-oxo-2,3-dihydro-1H-isoindol-2-yl)piperidine-2,6-dione], for which, in assay [1] (setting [3]), the “293T-LentiX WEE1-ePL Degradation 4 hr (Ymin)” value stood at 69.445. Further, the DC50 in assay [1] worked out at 22.7 nM. Further, in assay [2] (growth inhibition), the EC50 was at least 10000 nM. For the same molecule, in assay [2], the “MKN45 Cell Prolif. 120 hr (Ymin-Obs)” value came to 24.82.

As for `O=C1CCC(N2Cc3cc(O[C@@H]4CN(Cc5ccc6nc([C@H]7CCOC7)ccc6c5)C[C@H]4F)ccc3C2=O)C(=O)N1` (stereo partly drawn) [3-(5-{[(3R,4R)-4-fluoro-1-({2-[(3R)-oxolan-3-yl]quinolin-6-yl}methyl)pyrrolidin-3-yl]oxy}-1-oxo-2,3-dihydro-1H-isoindol-2-yl)piperidine-2,6-dione], the “293T-LentiX WEE1-ePL Degradation 4 hr (Ymin)” value in assay [1] (setting [4]) was 34.71. The DC50 in assay [1] is 8.43 nM. Besides, in assay [2], the EC50 was 18.7 nM and the “MKN45 Cell Prolif. 120 hr (Ymin-Obs)” value was found to be 20.39.

Consider `O=C1CC[C@H](N2Cc3cc(O[C@H]4CCN(Cc5ccc6nc(C7CCOCC7)ncc6c5)C4)ccc3C2=O)C(=O)N1` [(3S)-3-(5-{[(3S)-1-{[2-(oxan-4-yl)quinazolin-6-yl]methyl}pyrrolidin-3-yl]oxy}-1-oxo-2,3-dihydro-1H-isoindol-2-yl)piperidine-2,6-dione], for which the “293T-LentiX WEE1-ePL Degradation 4 hr (Ymin)” value in assay [1] (setting [3]) came to 32.12. Moreover, the DC50 in assay [1] turned out to be 75 nM. The EC50 in assay [2] (growth inhibition) is 29.3 nM. Further, in assay [2], the “MKN45 Cell Prolif. 120 hr (Ymin-Obs)” value is recorded as 9.327.

`C[C@@H]1CC(c2ccc3cc(CN4CC[C@H](Oc5ccc6c(c5)CN(C5CCC(=O)NC5=O)C6=O)C4)ccc3n2)C[C@H](C)O1` (stereo partly drawn) [3-(5-{[(3S)-1-({2-[(2R,6S)-2,6-dimethyloxan-4-yl]quinolin-6-yl}methyl)pyrrolidin-3-yl]oxy}-1-oxo-2,3-dihydro-1H-isoindol-2-yl)piperidine-2,6-dione]: the “293T-LentiX WEE1-ePL Degradation 4 hr (Ymin)” value in assay [1] (setting [3]) is recorded as 30.42. In assay [1], the DC50 came out at 11.7 nM. In addition, the EC50 in assay [2] (growth inhibition) is 10.4 nM. Moreover, the “MKN45 Cell Prolif. 120 hr (Ymin-Obs)” value in assay [2] was 14.48.

Take `[2H]c1nc2ccccc2cc1CN1CCC(Oc2ccc3c(c2)CN(C2CCC(=O)NC2=O)C3=O)C1` [3-(1-oxo-5-{[(3S)-1-{[(2-^2H)quinolin-3-yl]methyl}pyrrolidin-3-yl]oxy}-2,3-dihydro-1H-isoindol-2-yl)piperidine-2,6-dione]: the “293T-LentiX WEE1-ePL Degradation 4 hr (Ymin)” value in assay [1] (setting [3]) amounted to 25.75. The DC50 in assay [1] came out at 8.41 nM. Further, the EC50 in assay [2] (growth inhibition) turned out to be 28.5 nM. The “MKN45 Cell Prolif. 120 hr (Ymin-Obs)” value in assay [2] came out at 9.675.

Regarding `O=C1CCC(N2Cc3cc(O[C@H]4CCN(Cc5ccc6nc(N7CCS(=O)(=O)CC7)ncc6c5)C4)ccc3C2=O)C(=O)N1` (stereo partly drawn) [4-(6-{[(3S)-3-{[2-(2,6-dioxopiperidin-3-yl)-1-oxo-2,3-dihydro-1H-isoindol-5-yl]oxy}pyrrolidin-1-yl]methyl}quinazolin-2-yl)-1λ^6-thiomorpholine-1,1-dione], the “293T-LentiX WEE1-ePL Degradation 4 hr (Ymin)” value in assay [1] (setting [3]) is reported as 42. In addition, in assay [1], the DC50 came out at 23.6 nM. Moreover, the EC50 in assay [2] (growth inhibition) came to 51 nM. Further, in assay [2], the “MKN45 Cell Prolif. 120 hr (Ymin-Obs)” value was 17.09.

`CNc1ccc2cc(CN3CC[C@H](Oc4ccc5c(c4)CN(C4CCC(=O)NC4=O)C5=O)C3)ncc2c1` (stereo partly drawn) [3-(5-{[(3S)-1-{[7-(methylamino)isoquinolin-3-yl]methyl}pyrrolidin-3-yl]oxy}-1-oxo-2,3-dihydro-1H-isoindol-2-yl)piperidine-2,6-dione]: the “293T-LentiX WEE1-ePL Degradation 4 hr (Ymin)” value in assay [1] (setting [3]) amounted to 32. For the same molecule, the DC50 in assay [1] came to 9.01 nM. Moreover, the EC50 in assay [2] (growth inhibition) is 42.1 nM. In addition, the “MKN45 Cell Prolif. 120 hr (Ymin-Obs)” value in assay [2] is reported as 12.46.

On to `O=C1CCC(N2Cc3cc(O[C@H]4CCN(Cc5ccc6nc(N7CC[C@@]78CCOC8)ccc6c5)C4)ccc3C2=O)C(=O)N1` (stereo partly drawn) [3-(5-{[(3S)-1-({2-[(4S)-6-oxa-1-azaspiro[3.4]octan-1-yl]quinolin-6-yl}methyl)pyrrolidin-3-yl]oxy}-1-oxo-2,3-dihydro-1H-isoindol-2-yl)piperidine-2,6-dione], for which the “293T-LentiX WEE1-ePL Degradation 4 hr (Ymin)” value in assay [1] (setting [3]) came to 40. The DC50 in assay [1] was determined as 6.07 nM. Moreover, in assay [2] (growth inhibition), the EC50 stood at 6.53 nM. For the same molecule, the “MKN45 Cell Prolif. 120 hr (Ymin-Obs)” value in assay [2] came out at 7.225.

Take `O=C1CCC(N2C(=O)c3ccc(O[C@H]4CCN(Cc5cnc6ccccc6c5)C4)cc3C2=O)C(=O)N1` (stereo partly drawn) [2-(2,6-dioxopiperidin-3-yl)-5-{[(3S)-1-[(quinolin-3-yl)methyl]pyrrolidin-3-yl]oxy}-2,3-dihydro-1H-isoindole-1,3-dione]: the “293T-LentiX WEE1-ePL Degradation 4 hr (Ymin)” value in assay [1] (setting [3]) is on record as 30.205. In addition, in assay [1], the DC50 came out at 32.9 nM. Besides, the EC50 in assay [2] (growth inhibition) stood at 621 nM. The “MKN45 Cell Prolif. 120 hr (Ymin-Obs)” value in assay [2] is 15.39.

As for `O=C1CCC(N2Cc3cc(O[C@H]4CCN(Cc5ccc6nc(C7CCOCC7)ccc6c5)C4)c(F)cc3C2=O)C(=O)N1` (stereo partly drawn) [3-(6-fluoro-5-{[(3S)-1-{[2-(oxan-4-yl)quinolin-6-yl]methyl}pyrrolidin-3-yl]oxy}-1-oxo-2,3-dihydro-1H-isoindol-2-yl)piperidine-2,6-dione], the “293T-LentiX WEE1-ePL Degradation 4 hr (Ymin)” value in assay [1] (setting [4]) amounted to 30.27. In assay [1], the DC50 is 3 nM. For the same molecule, in assay [2], the EC50 is 7.69 nM and the “MKN45 Cell Prolif. 120 hr (Ymin-Obs)” value stood at 15.44.

For `O=C1CCC(N2Cc3cc(O[C@@H]4CN(Cc5ccc6nc([C@@H]7CCOC7)ccc6c5)CC4(F)F)ccc3C2=O)C(=O)N1` (stereo partly drawn) [3-(5-{[(3R)-4,4-difluoro-1-({2-[(3S)-oxolan-3-yl]quinolin-6-yl}methyl)pyrrolidin-3-yl]oxy}-1-oxo-2,3-dihydro-1H-isoindol-2-yl)piperidine-2,6-dione], the “293T-LentiX WEE1-ePL Degradation 4 hr (Ymin)” value in assay [1] (setting [4]) is listed as 30.61. Moreover, the DC50 in assay [1] came to 8.39 nM. Further, in assay [2], the EC50 turned out to be 9.93 nM and the “MKN45 Cell Prolif. 120 hr (Ymin-Obs)” value is recorded as 9.159.

Turning to `CN1CCCc2c(CN3CC[C@H](Oc4ccc5c(c4)CN(C4CCC(=O)NC4=O)C5=O)C3)cncc21` (stereo partly drawn) [3-(5-{[(3S)-1-[(1-methyl-1,2,3,4-tetrahydro-1,7-naphthyridin-5-yl)methyl]pyrrolidin-3-yl]oxy}-1-oxo-2,3-dihydro-1H-isoindol-2-yl)piperidine-2,6-dione], the “293T-LentiX WEE1-ePL Degradation 4 hr (Ymin)” value in assay [1] (setting [3]) is given as 40. The DC50 in assay [1] was found to be 19.6 nM. In assay [2] (growth inhibition), the EC50 is 313 nM. Further, the “MKN45 Cell Prolif. 120 hr (Ymin-Obs)” value in assay [2] is on record as 43.26.

As for `O=C1CCC(N2Cc3cc(O[C@@H]4CN(Cc5ccc6nc([C@@H]7CCOC7)ccc6c5)C[C@H]4F)ccc3C2=O)C(=O)N1` (stereo partly drawn) [3-(5-{[(3R,4R)-4-fluoro-1-({2-[(3S)-oxolan-3-yl]quinolin-6-yl}methyl)pyrrolidin-3-yl]oxy}-1-oxo-2,3-dihydro-1H-isoindol-2-yl)piperidine-2,6-dione], the “293T-LentiX WEE1-ePL Degradation 4 hr (Ymin)” value in assay [1] (setting [3]) is 29.32. Further, the DC50 in assay [1] amounted to 9.69 nM. Moreover, the EC50 in assay [2] (growth inhibition) is 29.1 nM. For the same molecule, the “MKN45 Cell Prolif. 120 hr (Ymin-Obs)” value in assay [2] was found to be 20.1.

The values above are taken from patent publication US20240067632A1, “WEE1 Degrading Compounds and Uses Thereof” (Bristol-Myers Squibb Company, priority 2022, published 2024).
